Measurements published in patent publication US7531555B2, “Compositions and methods for selective inhibition of nicotine acetylcholine receptors” (University of Florida Research Foundation, Inc., priority 2003, dated 2009).

Columns and labels:
mice [1] = assay: Locomotor activity, nicotine-induced hypomotility; assay type: in vivo; settings: Saline/Nicotine (1.5 mg/kg), s.c.
Procedure: Animals. Male ICR mice (20-25 g) obtained from Harlan Laboratories (Indianapolis, Ind.) were used throughout the study. Animals were housed in groups of six and had free access to food and water. Adult, male Long-Evans rats (350-460 g), obtained from Harlan (Dublin, Va.), were individually housed in a temperature-controlled (20-22° C.) environment with a 12-hour light-dark cycle (lights on at 7 a.m.). Rats were maintained within the indicated weight range by restricted post-session feeding and had ad libitum water in their home cages. Rats were drug-naive at the beginning of the study. Animals were housed in an AALAC approved facility and the study was approved by the Institutional Animal Care and Use Committee of Virginia Commonwealth University.
Locomotor activity. Mice were placed into individual Omnitech photocell activity cages (28×16.5 cm) immediately after s.c. administration of either 0.9% saline or nicotine (6.2 μmol/kg or 1 mg/kg) and were allowed to acclimate for 10 minutes. Interruptions of the photocell beams (two banks of eight cells each) were then recorded for the next 10 minutes. Data were expressed as percentage of depression where % depression=[1−(counts from nicotine-treated animals/counts from vehicle-treated animals)]×100. Mice were pretreated s.c. with either saline or TMPH 10 minutes before nicotine.
Eight to twelve mice were tested in each treatment group and each animal was tested only once.
Statistical analysis. Statistical analysis of all analgesic and in vivo studies was performed using either t-test or analysis of variance (ANOVA) with Tukey's test post hoc test when appropriate. All differences were considered significant at p<0.05. AD50 values with 95% CL for behavioral data were calculated by unweighted least-squares linear regression as described by Tallarida and Murray (Tallarida and Murray Manual of Pharmacological Calculations with Computer Programs. 1987, Springer-Verlag, New York).

mice [2] = assay: Body temperature, nicotine-induced hypothermia; assay type: in vivo; settings: Saline/Nicotine (1.5 mg/kg), s.c.
Procedure: Animals. Male ICR mice (20-25 g) obtained from Harlan Laboratories (Indianapolis, Ind.) were used throughout the study. Animals were housed in groups of six and had free access to food and water. Adult, male Long-Evans rats (350-460 g), obtained from Harlan (Dublin, Va.), were individually housed in a temperature-controlled (20-22° C.) environment with a 12-hour light-dark cycle (lights on at 7 a.m.). Rats were maintained within the indicated weight range by restricted post-session feeding and had ad libitum water in their home cages. Rats were drug-naive at the beginning of the study. Animals were housed in an AALAC approved facility and the study was approved by the Institutional Animal Care and Use Committee of Virginia Commonwealth University. Body temperature. Rectal temperature was determined by a thermistor probe (inserted 24 mm) and digital thermometer (Yellow Springs Instrument Co., Yellow Springs, Ohio). […] The difference in rectal temperature before and after treatment was calculated for each mouse. The ambient temperature of the laboratory varied from 21-24° C. from day to day. […] Psychopharmacology (Berl), 1995, 117:67-73). Eight to twelve mice were tested in each treatment group and each animal was tested only once. Statistical analysis. Statistical analysis of all analgesic and in vivo studies was performed using either t-test or analysis of variance (ANOVA) with Tukey's test post hoc test when appropriate.

Rat α4β2 = biological target: T1, Rat α4β2 (Rattus norvegicus, UniProt P09483+P12390); settings: mecamylamine, comparison value in discussion; read-out: IC50 (peak), expressed α4β2 subtypes; cited from earlier work
T1 construct: expressed in transfected cells; host or cells: Xenopus laevis oocytes injected with subunit cRNAs; clones from Dr. Jim Boulter (UCLA)
T1 sequence (P09483 31-630): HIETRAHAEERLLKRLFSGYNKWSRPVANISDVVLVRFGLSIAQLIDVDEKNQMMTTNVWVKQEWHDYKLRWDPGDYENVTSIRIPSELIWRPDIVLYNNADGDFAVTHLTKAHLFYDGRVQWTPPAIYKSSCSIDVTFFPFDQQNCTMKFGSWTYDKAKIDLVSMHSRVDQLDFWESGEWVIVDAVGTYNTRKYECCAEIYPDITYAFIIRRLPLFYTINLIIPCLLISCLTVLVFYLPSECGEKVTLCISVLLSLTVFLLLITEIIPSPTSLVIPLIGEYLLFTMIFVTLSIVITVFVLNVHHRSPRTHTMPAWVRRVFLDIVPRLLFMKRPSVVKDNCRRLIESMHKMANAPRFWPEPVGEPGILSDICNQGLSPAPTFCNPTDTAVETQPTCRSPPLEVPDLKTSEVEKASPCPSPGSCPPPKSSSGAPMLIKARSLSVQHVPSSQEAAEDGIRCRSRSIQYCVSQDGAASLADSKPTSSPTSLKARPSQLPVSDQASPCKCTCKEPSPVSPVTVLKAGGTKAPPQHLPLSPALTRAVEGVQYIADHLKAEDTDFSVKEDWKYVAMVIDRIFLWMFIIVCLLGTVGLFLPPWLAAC
T1 sequence (P12390 25-500): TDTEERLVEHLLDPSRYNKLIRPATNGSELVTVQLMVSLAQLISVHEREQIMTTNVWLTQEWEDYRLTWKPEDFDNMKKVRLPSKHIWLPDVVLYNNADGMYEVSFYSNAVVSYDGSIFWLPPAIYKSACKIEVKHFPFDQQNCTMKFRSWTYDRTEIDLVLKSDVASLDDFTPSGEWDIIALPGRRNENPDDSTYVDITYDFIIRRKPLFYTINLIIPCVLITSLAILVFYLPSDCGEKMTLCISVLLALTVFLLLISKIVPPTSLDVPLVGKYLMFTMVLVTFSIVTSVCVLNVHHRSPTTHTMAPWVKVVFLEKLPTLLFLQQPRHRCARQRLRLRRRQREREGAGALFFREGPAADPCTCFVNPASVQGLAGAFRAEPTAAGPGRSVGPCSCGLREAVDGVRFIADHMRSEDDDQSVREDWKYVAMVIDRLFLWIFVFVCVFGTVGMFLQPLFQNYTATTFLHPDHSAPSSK

Compound | Locomotor Activity # Interrupts (Mean ± SEM) (mice [1]) | Body temperature Δ° C. (Mean ± SEM) (mice [2]) [°C] | IC50 (Rat α4β2) [nM]
CN1CCCC1c1cccnc1 (single isomer, unassigned; (-)) [Nicotine, (−)-Nicotine] | 358 ± 92 # Interrupts | −5.0 ± 0.3 | 
CNC1(C)C2CCC(C2)C1(C)C (stereo not drawn) [Mecamylamine] |  |  | 2500
